In brackets after ≈: the same amount, converted by molar mass. Where a name gives a salt, the structure may show the parent alone. Read-outs that look alike come from different tables or passages of the source. Each block holds one compound with its values, some of them ahead of it.
Experiments:
[1] = target: Leucyl-tRNA synthetase (LeuRS) (Escherichia coli (strain K12), UniProt P07813); assay: Leucyl-tRNA synthetase enzyme inhibition (AMP-Glo; single point % inhibition at 100 μM and IC50); format: biochemical
Chain of Leucyl-tRNA synthetase (LeuRS) (P07813 whole entry, looked up): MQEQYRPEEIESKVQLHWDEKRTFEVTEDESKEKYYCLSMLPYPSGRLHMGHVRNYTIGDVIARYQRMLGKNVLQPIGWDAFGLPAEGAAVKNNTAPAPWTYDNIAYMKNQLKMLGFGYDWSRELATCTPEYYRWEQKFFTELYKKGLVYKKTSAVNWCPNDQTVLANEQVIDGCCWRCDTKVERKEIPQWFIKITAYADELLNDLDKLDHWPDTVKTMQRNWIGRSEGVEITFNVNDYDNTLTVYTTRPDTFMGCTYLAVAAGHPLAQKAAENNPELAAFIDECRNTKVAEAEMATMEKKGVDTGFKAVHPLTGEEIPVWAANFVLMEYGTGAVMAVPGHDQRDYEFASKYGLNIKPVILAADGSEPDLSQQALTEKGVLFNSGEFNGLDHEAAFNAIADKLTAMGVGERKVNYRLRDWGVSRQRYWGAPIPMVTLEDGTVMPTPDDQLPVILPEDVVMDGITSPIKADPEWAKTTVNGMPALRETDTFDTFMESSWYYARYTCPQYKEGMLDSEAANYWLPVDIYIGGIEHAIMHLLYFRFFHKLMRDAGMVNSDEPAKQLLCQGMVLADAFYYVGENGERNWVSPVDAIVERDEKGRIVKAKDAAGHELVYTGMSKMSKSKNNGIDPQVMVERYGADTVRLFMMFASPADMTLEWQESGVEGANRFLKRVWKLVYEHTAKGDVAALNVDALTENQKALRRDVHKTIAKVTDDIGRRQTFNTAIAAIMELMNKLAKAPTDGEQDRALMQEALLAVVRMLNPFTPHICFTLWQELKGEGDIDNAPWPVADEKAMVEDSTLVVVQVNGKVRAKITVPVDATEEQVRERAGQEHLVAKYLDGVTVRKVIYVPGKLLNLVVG
Source text: Study 1—Enzyme Inhibition
The aminoacylation reaction catalyzed by aminoacyl-tRNA synthetases (aaRS) takes place in two steps. In the first step, aaRS activates its cognate amino acid with ATP; and in the second step the activated amino acid is loaded to its corresponding tRNA. This reaction can be summarized as follows: aaRS+aa+ATP=aaRS-aa-AMP+PPi aaRS-aa-AMP+tRNA=aa-tRNA+AMP+aaRS
wherein: aaRS, aminoacyl-tRNA synthetase; aa, amino acid; aaRS-aa-AMP, enzyme-bound to aminoacyl-adenylate; AMP, adenosine monophosphate; aa-tRNA, aminoacyl-tRNA, PPi, inorganic pyrophosphate.
a. Single Point Percentage Inhibition
The activity of the pathogenic aaRSs was monitored by measuring AMP production using the commercial kit AMP-Glo (Promega, Madison, USA).
Ligand stock solutions were prepared in 100% DMSO at 10 mM concentration. An assay buffer consisting of 100 mM Tris HCl pH 7.6, 40 mM MgCl, 20 mM KCl and 150 mM NaCl was prepared in dH2O.
Using the same enzymatic assay in a 384-well plate format, ten point concentration response curves were generated for each compound using a top concentration of 10 μM. The known inhibitor LeuAMS was used as a positive control for the LeuRS assay. 100% DMSO was used as a negative control. The IC50 was calculated based on non-linear regression analysis.

[2] = system: bacteria (ATCC reference strains); assay: Antibacterial activity, MIC by broth micro-dilution (CLSI)
[3] = E. coli LeuRS, read-out: Enzyme Inhibition - IC50, E. coli LeuRS
[4] = Acinetobacter baumannii, read-out: Antibacterial Activity (MIC), E = A. baumannii B1931
[5] = Escherichia coli, ATCC25922, read-out: Antibacterial Activity (MIC), A = E. coli ATCC 25922
[6] = Haemophilus influenzae, ATCC49247, read-out: Antibacterial Activity (MIC), F = H. influenzae ATCC 49247
[7] = Klebsiella pneumoniae, ATCC700603, read-out: Antibacterial Activity (MIC), C = K. pneumoniae ATCC 700603
[8] = Pseudomonas aeruginosa, ATCC27853, read-out: Antibacterial Activity (MIC), D = P. aeruginosa ATCC 27853

Structure (SMILES): CC(C)C[C@H](N)C(=O)N=[S@@](N)(=O)c1ccsc1Cl [ANASIA-092-2]
- IC50 [1, 3]: 1970 nM

Structure (SMILES): CC(C)C[C@H](N)C(=O)N=S(N)(=O)c1ccsc1C(N)=O (stereo partly drawn) [ANASIA-093, 3-(N′-(L-leucyl)sulfamidimidoyl)thiophene-2-carboxamide hydrochloride]
- IC50 [1, 3]: 1330 nM

Structure (SMILES): Cc1csc([S@](N)(=O)=NC(=O)[C@@H](N)CC(C)C)c1 [ANASIA-095-2]
- IC50 [1, 3]: 1890 nM

Structure (SMILES): CC(C)C[C@H](N)C(=O)N=S(N)(=O)c1cscc1C#N (stereo partly shown) [ANASIA-096]
- IC50 [1, 3]: 700 nM

Structure (SMILES): CC(C)C[C@H](N)C(=O)N=S(N)(=O)c1cscc1C(N)=O (stereo partly drawn) [ANASIA-097, 4-(N′-(L-leucyl)sulfamidimidoyl)thiophene-3-carboxamide 2,2,2-trifluoroacetate]
- IC50 [1, 3]: 2160 nM

Structure (SMILES): Cc1cc([S@](N)(=O)=NC(=O)[C@@H](N)CC(C)C)cs1 [ANASIA-098-2]
- IC50 [1, 3]: 5140 nM

Structure (SMILES): CC(C)C[C@H](N)C(=O)N=[S@@](N)(=O)c1csc(Cl)c1 [ANASIA-099-2]
- IC50 [1, 3]: 511 nM

Structure (SMILES): CC(C)C[C@H](N)C(=O)N=S(N)(=O)c1csc(Cl)c1 (stereo partly shown) [ANASIA-099]
- MIC [2, 4]: 32 µg/mL (≈ 103 µM)
- MIC [2, 5]: 1 µg/mL (≈ 3.23 µM)
- MIC ([2]; Escherichia coli, BAA2469, read-out: Antibacterial Activity (MIC), G = E. coli BAA-2469): 2.83 µg/mL (≈ 9.13 µM)
- MIC [2, 6]: 2 µg/mL (≈ 6.45 µM)
- MIC [2, 7]: 16 µg/mL (≈ 51.6 µM)
- MIC [2, 8]: > 64 µg/mL

Structure (SMILES): CC(C)C[C@H](N)C(=O)N=[S@@](N)(=O)c1csc2ccsc12 [ANASIA-100-2]
- IC50 [1, 3]: 945 nM

Structure (SMILES): Cc1csc([S@](N)(=O)=NC(=O)[C@@H](N)CC(C)C)c1C [ANASIA-104-2]
- IC50 [1, 3]: 3250 nM

Structure (SMILES): C=Cc1ccsc1S(N)(=O)=NC(=O)[C@@H](N)CC(C)C (stereo partly drawn) [ANASIA-106, (2S)-2-amino-N-(amino(oxo)(3-vinylthiophen-2-yl)-λ6-sulfanylidene)-4-methylpentanamide hydrochloride]
- IC50 [1, 3]: 897 nM

Structure (SMILES): CC(C)C[C@H](N)C(=O)N=[S@@](N)(=O)c1scc(Br)c1Br [ANASIA-107-2]
- IC50 [1, 3]: 1290 nM

Structure (SMILES): COc1ccsc1[S@](N)(=O)=NC(=O)[C@@H](N)CC(C)C [ANASIA-108-2]
- IC50 [1, 3]: 4310 nM

Structure (SMILES): CC(C)C[C@H](N)C(=O)N=[S@](N)(=O)c1sccc1C(C)C [ANASIA-110-1]
- IC50 [1]: 425 nM

Structure (SMILES): CC(C)C[C@H](N)C(=O)N=[S@@](N)(=O)c1sccc1C(C)C [ANASIA-110-2]
- IC50 [1, 3]: 6240 nM

Structure (SMILES): CC(C)C[C@H](N)C(=O)N=[S@](N)(=O)c1ccc(C(C)C)s1 [ANASIA-111-1]
- IC50 [1]: 779 nM

Structure (SMILES): CC(C)C[C@H](N)C(=O)N=[S@](N)(=O)c1cccc(Oc2ccccc2)c1 [ANASIA-114-1]
- IC50 [1]: 61.8 nM

Structure (SMILES): CC(C)C[C@H](N)C(=O)N=[S@@](N)(=O)c1cccc(Oc2ccccc2)c1 [ANASIA-114-2]
- IC50 [1, 3]: 982 nM

Structure (SMILES): CCc1ccsc1[S@](N)(=O)=NC(=O)[C@@H](N)CC(C)C [ANASIA-119-2]
- IC50 [1, 3]: 4650 nM

Structure (SMILES): CC(C)C[C@H](N)C(=O)N=[S@@](N)(=O)c1sc(Cl)cc1Cl [ANASIA-120-2]
- IC50 [1, 3]: 7600 nM

Structure (SMILES): CC(C)C[C@H](N)C(=O)N=[S@@](N)(=O)c1cc(Cl)c(Cl)s1 [ANASIA-121-2]
- IC50 [1, 3]: 1100 nM

Structure (SMILES): Cc1c([S@](N)(=O)=NC(=O)[C@@H](N)CC(C)C)csc1Cl [ANASIA-122-2]
- IC50 [1, 3]: 1930 nM

Structure (SMILES): CC(C)C[C@H](N)C(=O)N=[S@@](N)(=O)c1cc(Cl)cs1 [ANASIA-124-2]
- IC50 [1, 3]: 4800 nM

Structure (SMILES): CC(C)C[C@H](N)C(=O)N=[S@@](N)(=O)c1csc(Cl)c1Cl [ANASIA-125-2]
- IC50 [1, 3]: 1930 nM

- MIC [2, 4]: 16 µg/mL (≈ 21.4 µM)
- MIC ([2]; Enterobacter cloacae, read-out: Antibacterial Activity (MIC), B = Enterobacter cloacae B1966): 16 µg/mL (≈ 21.4 µM)
- MIC [2, 5]: 4 µg/mL (≈ 5.34 µM)
- MIC [2, 6]: 2 µg/mL (≈ 2.67 µM)
- MIC [2, 7]: 32 µg/mL (≈ 42.7 µM)
- MIC [2, 8]: 32 µg/mL (≈ 42.7 µM)
Structure (SMILES): CC[C@H]1OC(=O)[C@H](C)[C@@H](O[C@H]2C[C@@](C)(OC)[C@@H](O)[C@H](C)O2)[C@H](C)[C@@H](O[C@@H]2O[C@H](C)C[C@H](N(C)C)[C@H]2O)[C@](C)(O)C[C@@H](C)CN(C)[C@H](C)[C@@H](O)[C@]1(C)O [Azithromycin]

- Antibacterial Activity (MIC), E = A. baumannii B1931 [2]: 2 µg/mL
- Antibacterial Activity (MIC), A = E. coli ATCC 25922 [2]: 0.25 µg/mL
- Antibacterial Activity (MIC), G = E. coli BAA-2469 [2]: >64.0 µg/mL
- Antibacterial Activity (MIC), B = Enterobacter cloacae B1966 [2]: 0.5 µg/mL
- Antibacterial Activity (MIC), F = H. influenzae ATCC 49247 [2]: 16 µg/mL
- Antibacterial Activity (MIC), C = K. pneumoniae ATCC 700603 [2]: >64 µg/mL
- Antibacterial Activity (MIC), D = P. aeruginosa ATCC 27853 [2]: >64 µg/mL
Structure (SMILES): CC(C)(O/N=C(\C(=O)N[C@@H]1C(=O)N2C(C(=O)[O-])=C(C[n+]3ccccc3)CS[C@H]12)c1csc(N)n1)C(=O)O [Ceftazidime]

- Antibacterial Activity (MIC), E = A. baumannii B1931 [2]: 8 µg/mL
- Antibacterial Activity (MIC), A = E. coli ATCC 25922 [2]: 0.5 µg/mL
- Antibacterial Activity (MIC), G = E. coli BAA-2469 [2]: >62.0 µg/mL
- Antibacterial Activity (MIC), B = Enterobacter cloacae B1966 [2]: 0.5 µg/mL
- Antibacterial Activity (MIC), F = H. influenzae ATCC 49247 [2]: 4 µg/mL
- Antibacterial Activity (MIC), C = K. pneumoniae ATCC 700603 [2]: 0.5 µg/mL
- Antibacterial Activity (MIC), D = P. aeruginosa ATCC 27853 [2]: >64 µg/mL
Structure (SMILES): C[C@@H](O)[C@H]1C(=O)N2C(C(=O)O)=C(S[C@@H]3CN[C@H](C(=O)N(C)C)C3)[C@H](C)[C@H]12 [Meropenem]

Source: patent US12247004B2, “2-amino-N-(amino-oxo-aryl-lambda6-sulfanylidene)acetamide compounds and their therapeutic use” (Oxford Drug Design Limited, priority 2019, dated 2025)
